Assay results as given in ChEMBL document CHEMBL1129243, “(S)-(+)-2-(3'-carboxybicyclo[1.1.1]pentyl)-glycine, a structurally new group I metabotropic glutamate receptor antagonist” (J Med Chem, 1996).

Tests used:
Type in all cases: functional, cell-based
[1] = molecular target: T1, Metabotropic glutamate receptor 4 (Homo sapiens, UniProt Q14833); assay: The compound was tested for inhibitory effect on second messenger formation in BHK cells expressing mGluR4a
[2] = molecular target: T2, Metabotropic glutamate receptor 5 (Homo sapiens, UniProt P41594); assay: The compound was tested for inhibitory effect on second messenger formation in BHK cells expressing mGluR5a
[3] = molecular target: T3, Metabotropic glutamate receptor 2 (Homo sapiens, UniProt Q14416); assay: The compound was tested for inhibitory effect on second messenger formation in BHK cells expressing mGluR2
[4] = molecular target: T2, Metabotropic glutamate receptor 5; assay: The compound was tested for effect on second messenger formation in BHK cells expressing mGluR5a at half maximal concentration
[5] = molecular target: T3, Metabotropic glutamate receptor 2; assay: The compound was tested for effect on second messenger formation in BHK cells expressing mGluR2
[6] = molecular target: T2, Metabotropic glutamate receptor 5; assay: The compound was tested for effect on second messenger formation in BHK cells expressing mGluR5a
[7] = molecular target: T1, Metabotropic glutamate receptor 4; assay: The compound was tested for effect on second messenger formation in BHK cells expressing mGluR4a

T1 sequence (Q14833 whole entry): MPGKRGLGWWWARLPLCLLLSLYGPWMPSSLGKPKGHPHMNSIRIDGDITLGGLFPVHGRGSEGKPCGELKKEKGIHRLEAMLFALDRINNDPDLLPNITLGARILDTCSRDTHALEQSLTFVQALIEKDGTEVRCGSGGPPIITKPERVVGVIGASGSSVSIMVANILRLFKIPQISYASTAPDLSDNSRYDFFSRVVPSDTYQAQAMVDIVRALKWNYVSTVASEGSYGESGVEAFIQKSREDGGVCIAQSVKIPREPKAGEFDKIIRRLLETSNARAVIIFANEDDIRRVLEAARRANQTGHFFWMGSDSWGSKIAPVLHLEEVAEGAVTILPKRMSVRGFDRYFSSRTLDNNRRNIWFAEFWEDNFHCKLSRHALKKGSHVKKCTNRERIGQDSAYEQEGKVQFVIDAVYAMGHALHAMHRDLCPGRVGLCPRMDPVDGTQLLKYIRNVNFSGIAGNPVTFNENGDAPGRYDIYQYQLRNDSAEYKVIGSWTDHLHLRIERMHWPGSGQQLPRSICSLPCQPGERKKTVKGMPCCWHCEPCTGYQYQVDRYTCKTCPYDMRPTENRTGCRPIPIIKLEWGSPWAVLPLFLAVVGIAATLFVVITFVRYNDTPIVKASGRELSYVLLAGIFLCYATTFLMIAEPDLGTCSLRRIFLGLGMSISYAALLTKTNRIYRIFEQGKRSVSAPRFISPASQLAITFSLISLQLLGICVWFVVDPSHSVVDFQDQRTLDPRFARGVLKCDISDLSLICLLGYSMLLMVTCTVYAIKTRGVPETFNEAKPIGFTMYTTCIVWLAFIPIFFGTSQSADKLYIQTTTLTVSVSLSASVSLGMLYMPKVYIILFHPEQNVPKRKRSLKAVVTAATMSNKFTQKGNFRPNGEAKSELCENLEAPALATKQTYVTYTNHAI
T2 sequence (P41594 whole entry): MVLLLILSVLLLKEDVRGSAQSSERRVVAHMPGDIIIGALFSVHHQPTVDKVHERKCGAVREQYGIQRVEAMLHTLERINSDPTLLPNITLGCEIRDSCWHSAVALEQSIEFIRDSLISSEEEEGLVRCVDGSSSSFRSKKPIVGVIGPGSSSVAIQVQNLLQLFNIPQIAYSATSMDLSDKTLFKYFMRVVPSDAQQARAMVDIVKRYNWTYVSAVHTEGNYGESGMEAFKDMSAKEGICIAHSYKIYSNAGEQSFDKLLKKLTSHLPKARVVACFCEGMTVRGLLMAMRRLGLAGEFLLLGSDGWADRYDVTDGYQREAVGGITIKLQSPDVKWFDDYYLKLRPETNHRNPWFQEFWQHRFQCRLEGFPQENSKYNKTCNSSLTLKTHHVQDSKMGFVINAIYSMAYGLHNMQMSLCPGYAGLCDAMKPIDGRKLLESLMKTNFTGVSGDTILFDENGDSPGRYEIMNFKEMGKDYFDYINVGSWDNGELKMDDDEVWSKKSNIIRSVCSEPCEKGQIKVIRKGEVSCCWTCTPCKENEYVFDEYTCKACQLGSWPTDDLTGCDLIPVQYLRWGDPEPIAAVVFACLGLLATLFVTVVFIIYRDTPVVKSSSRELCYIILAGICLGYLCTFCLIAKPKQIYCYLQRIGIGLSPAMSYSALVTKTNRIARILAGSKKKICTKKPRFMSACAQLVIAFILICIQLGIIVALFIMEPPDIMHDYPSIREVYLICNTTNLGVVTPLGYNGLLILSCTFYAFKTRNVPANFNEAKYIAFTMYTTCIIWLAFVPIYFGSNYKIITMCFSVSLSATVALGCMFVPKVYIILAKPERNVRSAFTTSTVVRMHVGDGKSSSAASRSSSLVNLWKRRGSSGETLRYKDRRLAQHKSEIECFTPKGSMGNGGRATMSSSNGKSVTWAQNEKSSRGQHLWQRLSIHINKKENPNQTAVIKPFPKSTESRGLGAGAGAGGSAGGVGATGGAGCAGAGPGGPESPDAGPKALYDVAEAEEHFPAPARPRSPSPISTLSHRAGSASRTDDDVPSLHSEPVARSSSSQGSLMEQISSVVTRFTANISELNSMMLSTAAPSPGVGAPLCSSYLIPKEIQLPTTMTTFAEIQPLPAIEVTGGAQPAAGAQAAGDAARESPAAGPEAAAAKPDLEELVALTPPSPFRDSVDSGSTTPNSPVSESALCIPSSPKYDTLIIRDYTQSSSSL
T3 sequence (Q14416 whole entry): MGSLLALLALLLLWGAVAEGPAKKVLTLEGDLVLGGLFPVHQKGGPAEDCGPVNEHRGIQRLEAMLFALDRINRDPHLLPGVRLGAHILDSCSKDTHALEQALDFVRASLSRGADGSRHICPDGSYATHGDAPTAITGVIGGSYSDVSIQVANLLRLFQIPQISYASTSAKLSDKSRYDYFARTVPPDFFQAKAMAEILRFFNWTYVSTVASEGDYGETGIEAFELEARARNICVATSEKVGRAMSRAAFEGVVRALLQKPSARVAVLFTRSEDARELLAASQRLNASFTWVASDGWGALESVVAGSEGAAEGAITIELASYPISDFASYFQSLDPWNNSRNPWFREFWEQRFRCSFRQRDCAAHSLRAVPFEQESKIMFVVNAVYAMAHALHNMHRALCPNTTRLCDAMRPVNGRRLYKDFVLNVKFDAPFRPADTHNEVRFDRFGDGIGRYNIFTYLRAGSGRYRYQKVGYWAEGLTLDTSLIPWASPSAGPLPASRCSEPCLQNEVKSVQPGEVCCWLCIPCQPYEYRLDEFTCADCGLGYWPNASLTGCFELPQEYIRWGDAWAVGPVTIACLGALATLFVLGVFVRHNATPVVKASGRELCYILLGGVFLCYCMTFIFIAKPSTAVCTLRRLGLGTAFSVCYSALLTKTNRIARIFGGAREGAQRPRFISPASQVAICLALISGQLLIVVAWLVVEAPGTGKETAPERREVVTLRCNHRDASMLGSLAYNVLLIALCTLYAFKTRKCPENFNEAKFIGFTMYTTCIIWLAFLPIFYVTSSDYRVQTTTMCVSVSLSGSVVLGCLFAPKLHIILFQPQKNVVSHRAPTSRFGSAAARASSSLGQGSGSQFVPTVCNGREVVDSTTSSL

Row | SMILES | IC50 [1] [µM] | IC50 [2] [µM] | IC50 [3] [µM] | EC50 [4] [µM] | EC50 [5] [µM] | EC50 [6] [µM] | EC50 [7] [µM]
1 | N[C@H](C(=O)O)C12CC(C(=O)O)(C1)C2 | > 300 | > 300 | > 300 | 103 | > 300 | > 300 | > 300
2 | N[C@@H](C(=O)O)C12CC(C(=O)O)(C1)C2 | > 300 | > 300 | > 300 |  | > 300 | > 300 | > 300
